Patent US10774080B2, “Pyrimidine compound as JAK kinase inhibitor” (THERAVANCE BIOPHARMA R&D IP, LLC, priority 2017, dated 2020)

Tests used:
[1] = tested on: BEAS-2B human lung epithelial cells; format: cell-based; conditions: 48 h
Description: Assay 3: Cytotoxicity Assay A CellTiter-Glo luminescent cell viability/cytotoxicity assay was carried out in BEAS-2B human lung epithelial cells (ATCC) under the normal growth condition. […] On day 1 of the assay, cells were seeded at a 500 cells/well density in white 384-well tissue culture plates (Corning) with 25 μL medium, and were allowed to adhere overnight in the incubator. On day 2 of the assay, 5 μL of medium containing dose-responses of test compounds was added, and incubated at 37° C. for 48 h. 30 μL of CellTiter-Glo detection solution (Promega) was subsequently added, mixed on an orbital shaker for 5 min, and incubated for additional 10 min before being read on the EnVision reader. Luminescence signals were recorded and percent DMSO control values were calculated. For dose-response analysis, percent DMSO control data were plotted vs. compound concentrations to derive dose-response curves by line connecting each data point. […] Results were expressed as the negative logarithm of the CC15 value, pCC15. […] The pCC15 for compound (I) was 5.36.

[2] = tested on: IL-22 suppressed Filaggrin expression; test: Assay 15: recovery of IL-22 suppressed Filaggrin in normal human epidermal keratinocytes; format: cell-based; conditions: IL-22 50 ng/mL, 4 days
Description: Assay 15: Recovery of IL-22 Suppressed Filaggrin in Normal Human Epidermal Keratinocytes
IL-22 is known to inhibit the expression of terminal differentiation genes, such as Filaggrin. The recovery level of test compound for interleukin-22 (IL-22) suppressed Filaggrin expression was measured in the normal human epidermal keratinocytes (ATCC) using real-time PCR.
Primary epidermal keratinocytes were cultured in a 37° C., 5% CO2 humidified incubator in dermal cell basal medium (ATCC) supplemented with keratinocyte growth kit (ATCC) and 1× Pen/Strep (Life Technologies). Cells were seeded at 5,000 cells/well in BioCoat 96-well plates (Corning) with 100 μl and incubated at 37° C., 5% CO2 for 3 to 4 days till 100% confluency. Then, the medium was removed and replaced with 150 μL of medium containing does-response of test compounds. Compounds were serially diluted in DMSO and then diluted another 1000-fold in media to bring the final DMSO concentration to 0.1%. On day 1 of the assay, cells were incubated with test compounds at 37° C. for 1 h, and followed by the addition of followed by the addition of IL-22 (R&D Systems; final concentration 50 ng/mL) in pre-warmed media (50 μL) for 4 days. […] Fluorescence signals were captured after each cycle. Comparative CT method was used to quantify gene expression with cells without IL-22 and test compounds as baseline control.

[3] = Hanford, minipig, in vivo
Description: Assay 6: Dermal Pharmacokinetics in Hanford Mini-Pig Skin
The objective of this Study was to determine the epidermal, dermal and plasma pharmacokinetics of compound (I) following a 24 hour exposure to intact Hanford mini-pig skin.
Twenty-four hours prior to dosing, the hair was shaved from the back of 10-15 kg Hanford mini-pigs exposing an area of at least 700 cm^2 (about 10% of body surface). At time zero, compound (I) was applied to the back of the mini-pigs at a dose of 25 μL/cm^2. The skin was covered with an adhesive cover to prevent loss of compound to the cage or bedding. Following 24 h exposure, the backs were gently washed with soap and water to remove non-absorbed drug and patted dry. Immediately following this washing, blood was drawn by venipuncture from the mini-pigs. The outer skin (stratum corneum) was then removed by adhesive tape stripping. Upon exposure of the epidermis a 0.5 cm punch biopsy was taken. The epidermis and dermis were quickly separated, weighed and snap frozen. Similar samples were taken at 94 h, and 168 h (7 days) post-dosing in mini-pigs. Epidermis and dermis samples were homogenized in 1:10 (w/v) water using a Covaris ultrasonic homogenizer. Samples were extracted in 3 volumes of acetonitrile and quantified against a standard curve via LC-MS analysis.

Tyk2 = biological target: T1, Tyk2 (Homo sapiens, UniProt P29597); test: Biochemical Tyk2 kinase assay (LanthaScreen); conditions: read-out: Tyk 2 (pKi) (converted)
T1 construct: GST; purchased Life Technologies
Description: Assay 1: Biochemical JAK and Tyk2 Kinase Assays A panel of four LanthaScreen JAK biochemical assays (JAK1, 2, 3 and Tyk2) were carried in a common kinase reaction buffer (50 mM HEPES, pH 7.5, 0.01% Brij-35, 10 mM MgCl2, and 1 mM EGTA). Recombinant GST-tagged JAK enzymes and a GFP-tagged STAT1 peptide substrate were obtained from Life Technologies. Serially or discretely diluted compounds were pre-incubated with each of the four JAK enzymes and the substrate in white 384-well microplates (Corning) at ambient temperature for 1 h. ATP was subsequently added to initiate the kinase reactions in 10 μL total volume, with 1% DMSO. […] The plates were allowed to incubate at ambient temperature for 1 h before being read on the EnVision reader (Perkin Elmer). Emission ratio signals (520 nm/495 nm) were recorded and utilized to calculate the percent inhibition values based on DMSO and background controls. For dose-response analysis, percent inhibition data were plotted vs. compound concentrations, and IC50 values were determined from a 4-parameter robust fit model with the Prism software (GraphPad Software). Results were expressed as pIC50 (negative logarithm of IC50) and subsequently converted to pKi (negative logarithm of dissociation constant, Ki) using the Cheng-Prusoff equation.

in vitro = in vitro ADME; conditions: human, microsomes
Description: Assay 17: Human Liver Microsome Assay The objective of this assay was to assess the metabolic stability of test compounds in an in vitro human liver sub-fraction. Human liver microsomes obtained from Bioreclamation-IVT (Baltimore, Md.) were thawed on ice and diluted into 0.1M potassium phosphate buffer pH 7.4 to yield final incubation protein concentrations of 0.1 mg/mL. […] Incubations were conducted at 37° C. temperature and test aliquots were taken at time points 0, 5, 8, 15, 30 and 45 minutes. […] The resulting samples were injected onto an LC-MS/MS system for analysis. For each incubation, the peak area of the analytes in each t0 aliquot was set to 100% and the peak areas from subsequent time point aliquots were converted to percentage of parent compound remaining relative to t0. The percentage of parent compound remaining was converted to natural log scale and plotted versus time in minutes. A linear regression analysis was performed for the initial decline of the parent disappearance profile and a formula for the best-fit line determined. The slope of the resultant line was normalized to protein concentration in mg/mL protein or number of cells/mL and CLint was calculated as follows for liver microsomes: CLint (μL·min^−1·mg^−1)=(Slope×1000)/[protein,mg/mL]

T1 sequence (P29597 whole entry): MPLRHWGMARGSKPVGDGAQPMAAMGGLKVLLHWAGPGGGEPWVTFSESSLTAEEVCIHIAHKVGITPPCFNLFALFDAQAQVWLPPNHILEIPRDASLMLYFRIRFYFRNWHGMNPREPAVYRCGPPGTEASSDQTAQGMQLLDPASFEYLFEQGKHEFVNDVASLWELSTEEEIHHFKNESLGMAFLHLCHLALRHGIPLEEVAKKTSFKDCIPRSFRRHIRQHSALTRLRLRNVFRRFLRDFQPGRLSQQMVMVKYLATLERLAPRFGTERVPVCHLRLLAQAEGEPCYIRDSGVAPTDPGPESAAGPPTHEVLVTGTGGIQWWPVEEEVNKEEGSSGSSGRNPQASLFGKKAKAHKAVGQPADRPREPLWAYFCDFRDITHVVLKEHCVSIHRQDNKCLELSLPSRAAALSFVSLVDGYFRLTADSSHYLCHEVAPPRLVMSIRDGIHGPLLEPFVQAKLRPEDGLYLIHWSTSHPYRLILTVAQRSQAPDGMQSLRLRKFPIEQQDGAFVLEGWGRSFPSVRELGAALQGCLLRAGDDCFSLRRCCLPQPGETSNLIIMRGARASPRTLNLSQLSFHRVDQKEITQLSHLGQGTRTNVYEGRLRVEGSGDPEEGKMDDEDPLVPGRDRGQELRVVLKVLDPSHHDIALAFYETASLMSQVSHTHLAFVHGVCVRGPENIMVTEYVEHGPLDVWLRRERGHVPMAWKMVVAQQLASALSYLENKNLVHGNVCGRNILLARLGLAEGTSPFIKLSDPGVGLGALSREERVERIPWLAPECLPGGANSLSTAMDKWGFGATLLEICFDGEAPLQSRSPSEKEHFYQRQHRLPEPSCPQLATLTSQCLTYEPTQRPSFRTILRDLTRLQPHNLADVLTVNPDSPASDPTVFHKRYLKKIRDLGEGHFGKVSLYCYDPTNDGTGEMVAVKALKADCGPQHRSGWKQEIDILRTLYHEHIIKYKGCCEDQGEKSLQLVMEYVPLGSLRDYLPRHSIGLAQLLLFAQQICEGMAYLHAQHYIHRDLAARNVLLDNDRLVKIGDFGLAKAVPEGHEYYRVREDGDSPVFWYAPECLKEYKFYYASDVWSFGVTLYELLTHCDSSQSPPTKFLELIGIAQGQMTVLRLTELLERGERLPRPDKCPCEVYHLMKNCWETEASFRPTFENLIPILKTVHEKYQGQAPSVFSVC

In the case of CCS(=O)(=O)N1[C@@H]2CCC[C@H]1C[C@H](N(C)c1nc(CO)c(F)c(Nc3cc(C)[nH]n3)n1)C2 [Compound (I), (2-(((1R,3s,5S)-9-(ethylsulfonyl)-9-azabicyclo[3.3.1]nonan-3-yl)(methyl)amino)-5-fluoro-6-((5-methyl-1H-pyrazol-3-yl)amino)pyrimidin-4-yl)methanol], the pCC15 [1] is reported as 5.36, the “concentration at which recovery of IL-22 suppressed Filaggrin expression was observed” value [2] is reported as under 1 µM and the “plasma exposure (below the limit of quantitation)” value [3] is reported as under 0.001 µg/mL. It also gave a Ki (Tyk2) of 0.126 nM, a microsomal CLint at 0.1 μM (in vitro; pH 7.4, HLM Clint) of 136 µL/min/mg and a microsomal CLint at 0.1 μM (in vitro; pH 7.4, clearance class in human microsomes) of over 50 µL/min/mg.
